Data as given in patent US20250041179A1, “ANTIMICROBIAL COMBINATIONS” (SYMRISE AG, priority 2021, published 2025).

Key:
Details in all cases: substance alone 0.5% w/w
S. aureus [1] = assay: Preservative efficacy test (Ph. Eur., adjusted inoculum) in O/W anionic emulsion; assay type: cell-based, Staphylococcus aureus
Description: (§1) Material was tested in predesigned standardised cosmetic formulations either as oil-in-water anionic emulsion (Table 2), shampoo (Table 3), or wet wipe solution (Table 4). The antimicrobial actives were dissolved or mixed with the standardised cosmetic formulations, leading to the indicated test concentrations (in w/w %, cf. […] To determine synergistic indices, raw values for bacterial of fungal colony counts were used. [table] […] Steinberg D. C. (2000): Measuring Synergy. In Cosmetics & Toiletries, 115) was used: […]

E. coli [2] = assay: as above; assay type: cell-based, Escherichia coli
Description: as §1

P. aeruginosa = assay: Preservative efficacy test (Ph. Eur., adjusted inoculum) in shampoo formulation; assay type: cell-based, Pseudomonas aeruginosa
Description: (§2) Preservative efficacy tests were performed according to the European Pharmacopoeia with adjusted inoculation numbers (10^6-10^7 cells of suitable bacteria or fungi). Material was tested in predesigned standardised cosmetic formulations either as oil-in-water anionic emulsion (Table 2), shampoo (Table 3), or wet wipe solution (Table 4). The antimicrobial actives were dissolved or mixed with the standardised cosmetic formulations, leading to the indicated test concentrations (in w/w %, cf. Tables 5 to 12 below). To determine synergistic indices, raw values for bacterial of fungal colony counts were used.
(§3) [formula] • where • SI is the synergism index according to Kull • CA is the cell count for substance A (also “count A”) • CB is the cell count for substance B (also “count B”) • Cmixture is the cell count for the mixture of substance A and B (also “count mix”) • PA is the proportion of the substance A in the mixture in relation to the concentration tested alone • PB is the proportion of the substance B in the mixture in relation to the concentration tested alone

C. albicans = assay: as above; assay type: cell-based, Candida albicans
Description: as §2, §3

E. coli [3] = assay: as above; assay type: cell-based, Escherichia coli
Description: as §2
(§4) To calculate the synergism between the indicated antimicrobial actives (cf. preservative efficacy tests below), the Kull equation (Kull et al., Applied Microbiology 1961, 9 (6), pp. 538-541, DOI: 10.1128/am.9.6.538-541.1961.; Steinberg D. C. (2000): Measuring Synergy. In Cosmetics & Toiletries, 115) was used:
as §3

S. aureus [4] = assay: as above; assay type: cell-based, Staphylococcus aureus
Description: as §2, §4, §3

A. brasiliensis = assay: as above; assay type: cell-based, Aspergillus brasiliensis
Description: as §2, §3

Question: What does the source list for `CCCCCCCC(=O)OCCCO` [3-Hydroxypropyl caprylate, 3-hydroxypropyl caprylate]?
Answer: Absolute cell counts 2 days (S. aureus [1]; 2 days): 2.10E+05; Relative cell counts 2 days (S. aureus [1]; 2 days): 0.0382; Absolute cell counts 7 days (S. aureus [1]; 7 days): 1.80E+02; Relative cell counts 7 days (S. aureus [1]; 7 days): 0.0000; Absolute cell counts 14 days (S. aureus [1]; 14 days): 1; Relative cell counts 14 days (S. aureus [1]; 14 days): 0.0000; Absolute cell counts 28 days (S. aureus [1]; 28 days): 1; Relative cell counts 28 days (S. aureus [1]; 28 days): 0.0000; Absolute cell counts 2 days (E. coli [2]; 2 days): 3.30E+06; Relative cell counts 2 days (E. coli [2]; 2 days): 0.9706; Absolute cell counts 7 days (E. coli [2]; 7 days): 2.60E+04; Relative cell counts 7 days (E. coli [2]; 7 days): 0.0076; Absolute cell counts 14 days (E. coli [2]; 14 days): 1; Relative cell counts 14 days (E. coli [2]; 14 days): 0.0000; Absolute cell counts 28 days (E. coli [2]; 28 days): 1; Relative cell counts 28 days (E. coli [2]; 28 days): 0.0000; Absolute cell counts 2 days (P. aeruginosa; 2 days): 9.30E+04; Relative cell counts 2 days (P. aeruginosa; 2 days): 0.0211; Absolute cell counts 7 days (P. aeruginosa; 7 days): 9.50E+02; Relative cell counts 7 days (P. aeruginosa; 7 days): 0.0002; Absolute cell counts 14 days (P. aeruginosa; 14 days): 1; Relative cell counts 14 days (P. aeruginosa; 14 days): 0.0000; Absolute cell counts 28 days (P. aeruginosa; 28 days): 1; Relative cell counts 28 days (P. aeruginosa; 28 days): 0.0000; Absolute cell counts 2 days (C. albicans; 2 days): 2.10E+03; Relative cell counts 2 days (C. albicans; 2 days): 0.0010; Absolute cell counts 7 days (C. albicans; 7 days): 1; Relative cell counts 7 days (C. albicans; 7 days): 0.0000; Absolute cell counts 14 days (C. albicans; 14 days): 1; Relative cell counts 14 days (C. albicans; 14 days): 0.0000; Absolute cell counts 28 days (C. albicans; 28 days): 1; Relative cell counts 28 days (C. albicans; 28 days): 0.0000; Absolute cell counts 2 days (E. coli [3]; 2 days): 1.80E+06; Relative cell counts 2 days (E. coli [3]; 2 days): 0.5806; Absolute cell counts 7 days (E. coli [3]; 7 days): 2.00E+06; Relative cell counts 7 days (E. coli [3]; 7 days): 0.6452; Absolute cell counts 14 days (E. coli [3]; 14 days): 1.70E+06; Relative cell counts 14 days (E. coli [3]; 14 days): 0.5484; Absolute cell counts 28 days (E. coli [3]; 28 days): 1.10E+06; Relative cell counts 28 days (E. coli [3]; 28 days): 0.3548; Absolute cell counts 2 days (S. aureus [4]; 2 days): 1; Relative cell counts 2 days (S. aureus [4]; 2 days): 0.0000; Absolute cell counts 7 days (S. aureus [4]; 7 days): 1; Relative cell counts 7 days (S. aureus [4]; 7 days): 0.0000; Absolute cell counts 14 days (S. aureus [4]; 14 days): 1; Relative cell counts 14 days (S. aureus [4]; 14 days): 0.0000; Absolute cell counts 28 days (S. aureus [4]; 28 days): 1; Relative cell counts 28 days (S. aureus [4]; 28 days): 0.0000; Absolute cell counts 2 days (A. brasiliensis; 2 days): 3.00E+06; Relative cell counts 2 days (A. brasiliensis; 2 days): 0.9091; Absolute cell counts 7 days (A. brasiliensis; 7 days): 3.80E+06; Relative cell counts 7 days (A. brasiliensis; 7 days): 1.1515; Absolute cell counts 14 days (A. brasiliensis; 14 days): 4.50E+06; Relative cell counts 14 days (A. brasiliensis; 14 days): 1.3636; Absolute cell counts 28 days (A. brasiliensis; 28 days): 8.10E+05; Relative cell counts 28 days (A. brasiliensis; 28 days): 0.2455
